# Test results taken from US20170224758A1, “COMPOSITIONS AND METHODS OF TREATING MUSCULAR DYSTROPHY” (THE BROAD INSTITUTE, INC., priority 2014, published 2017).
# Target: T1, Myogenin (Mus musculus, UniProt P12979)
# T1 construct: electrophoretic mobility shift assays (EMSA) were carried out using muscle cell nuclear extracts; host or cells: C2C12 nuclear extract
# T1 sequence (P12979 1-224): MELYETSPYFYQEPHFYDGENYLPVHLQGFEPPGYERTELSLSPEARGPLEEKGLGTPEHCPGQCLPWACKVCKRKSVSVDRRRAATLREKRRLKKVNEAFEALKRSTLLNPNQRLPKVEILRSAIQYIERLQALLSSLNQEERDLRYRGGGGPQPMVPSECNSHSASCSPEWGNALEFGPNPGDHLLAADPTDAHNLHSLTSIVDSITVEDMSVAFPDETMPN
# Test: Electrophoretic mobility shift assay (EMSA) with muscle cell nuclear extracts
# Assay type: binding
# Settings: biotin labeled probe, C2C12 nuclear extract
row,Sequence,binding of Myogenin protein (EMSA)
1,"CTCCTTTATTTCAGCTGAACTAAAGAAGTCTC (DNA, backbone and methylation of C not given here; duplex with complementary strand, biotin-labeled probe or unlabeled competitor) [T probe, biotin labeled duplex EMSA probe with the escaper variant of the Jagged1 promoter]",robustly bound
2,"CTCCTTTATTTCAGCGGAACTAAAGAAGTCTC (DNA, backbone and methylation of C not given here; duplex with complementary strand, biotin-labeled probe or unlabeled competitor) [G probe]",did not bind at all
